Active and inactive are the calls of the source.
Key:
Candida albicans [1] = assay: single-agent growth inhibition of C. albicans, dose response, counter-screen for antifungal drug resistance project, C. albicans CaCi-2, dry powder (AID 488802); type: functional, organism-based
Candida albicans [2] = assay: growth inhibition of resistant C. albicans, dose response, CaCi-8, fluconazole, Alamar Blue, dry powder (AID 488807); type: functional, organism-based
Candida albicans [3] = assay: growth inhibition of resistant C. albicans, dose response, CaCi-8 strain, fluconazole, dry powder, set 4 (AID 488950); type: functional, organism-based
Candida albicans [4] = assay: fluconazole resistance reversal in C. albicans, dose response, CaCi-2 strain, Alamar Blue, dry powder, set 4 (AID 488943); type: functional, organism-based
[5] = Fluorescence polarization-based biochemical high throughput dose response assay for activators of the Protein Kinase A-R1A (PKA-R1A) complex. [Related pubchem assays (depositor defined):AID504704, AID504707, AID504799, AID504800]
[6] = Fluorescence polarization-based biochemical high throughput dose response assay for activators of the Protein Kinase A-R2B (PKA-R2B) complex. [Related pubchem assays (depositor defined):AID504700, AID504704, AID504796, AID504797]
Hexokinase HKDC1 = target: T1, Hexokinase HKDC1 (Homo sapiens, UniProt Q2TB90); assay: SAR analysis of small molecule inhibitors of hexokinase domain containing I (HKDC1). [Related pubchem assays (depositor defined):AID493160, AID493190]; type: functional
T1 sequence (Q2TB90 whole entry): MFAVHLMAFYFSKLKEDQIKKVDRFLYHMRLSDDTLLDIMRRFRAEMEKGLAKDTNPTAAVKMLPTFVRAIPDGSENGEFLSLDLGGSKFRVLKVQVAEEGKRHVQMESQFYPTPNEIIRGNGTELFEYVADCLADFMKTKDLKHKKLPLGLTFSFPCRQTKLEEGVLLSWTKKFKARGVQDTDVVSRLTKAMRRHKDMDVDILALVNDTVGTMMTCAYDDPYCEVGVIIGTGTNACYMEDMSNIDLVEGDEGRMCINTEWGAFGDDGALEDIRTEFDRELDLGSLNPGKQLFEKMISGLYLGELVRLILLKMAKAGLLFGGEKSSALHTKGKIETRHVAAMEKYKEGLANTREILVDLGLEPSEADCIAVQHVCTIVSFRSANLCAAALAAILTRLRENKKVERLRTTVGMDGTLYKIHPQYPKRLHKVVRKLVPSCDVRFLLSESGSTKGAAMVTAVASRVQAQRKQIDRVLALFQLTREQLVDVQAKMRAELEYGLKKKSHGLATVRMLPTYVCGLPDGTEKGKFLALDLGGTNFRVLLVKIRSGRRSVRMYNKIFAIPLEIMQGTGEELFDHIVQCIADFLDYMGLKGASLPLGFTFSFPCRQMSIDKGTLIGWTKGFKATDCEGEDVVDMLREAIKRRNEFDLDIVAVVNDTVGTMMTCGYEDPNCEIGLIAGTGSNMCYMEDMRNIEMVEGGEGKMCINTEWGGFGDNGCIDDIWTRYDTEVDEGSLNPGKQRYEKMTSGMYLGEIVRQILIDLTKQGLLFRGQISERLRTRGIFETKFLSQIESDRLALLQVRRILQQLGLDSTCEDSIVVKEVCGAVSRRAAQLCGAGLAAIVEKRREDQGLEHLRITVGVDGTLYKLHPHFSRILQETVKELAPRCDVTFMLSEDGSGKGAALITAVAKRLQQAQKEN

[7] = target: G-protein coupled receptor 55 (Homo sapiens, UniProt Q9Y2T6); assay: GPR55 agonists via beta-arrestin recruitment, primary screen, imaging, U2OS cells, beta-arrestin-GFP redistribution (AID 1961); type: functional
Hexokinase-1 = Hexokinase-1 (Homo sapiens, UniProt P19367); assay: SAR analysis of small molecule inhibitors of hexokinase domain containing I (HKDC1) in the hexokinase 1 selectivity assay. [Related pubchem assays (depositor defined):AID493160, AID493190]; type: functional
[8] = target: Eukaryotic translation initiation factor 4E (Mus musculus, UniProt P63073); assay: eIF4E–eIF4G protein interaction inhibitors, dose response, biochemical, TR-FRET (AID 855); type: functional;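 note: potency for disrupting eIF4E binding to eIF4GI seen as loss of FRET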
[9] = target: T2, Dual specificity protein phosphatase 6 (Rattus norvegicus, UniProt Q64346); assay: MKP-3 phosphatase inhibitors, primary screen, biochemical, rat enzyme, in vitro (AID 425)
T2 sequence (Q64346 whole entry): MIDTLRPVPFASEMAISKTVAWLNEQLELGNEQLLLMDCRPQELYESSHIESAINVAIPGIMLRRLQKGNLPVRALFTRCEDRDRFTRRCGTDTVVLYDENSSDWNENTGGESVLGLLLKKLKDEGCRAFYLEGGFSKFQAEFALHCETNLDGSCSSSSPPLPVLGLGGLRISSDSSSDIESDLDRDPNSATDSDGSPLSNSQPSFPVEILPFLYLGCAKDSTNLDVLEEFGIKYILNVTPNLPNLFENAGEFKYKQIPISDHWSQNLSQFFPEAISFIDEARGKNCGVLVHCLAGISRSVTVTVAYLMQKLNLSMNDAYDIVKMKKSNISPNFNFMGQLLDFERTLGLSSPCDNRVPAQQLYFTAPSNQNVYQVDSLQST

Beta-galactosidase = Beta-galactosidase (Escherichia coli, UniProt Q8VNN2); assay: PubChem AID 485352; type: functional
[10] = target: Eukaryotic translation initiation factor 4H (Homo sapiens, UniProt Q15056); assay: human eIF4H binding inhibitors, primary screen, translation initiation inhibitor project, biochemical, uHTS, fluorescence polarization (AID 2012)
[11] = target: T3, Voltage-gated N-type calcium channel alpha-1B subunit/Amyloid beta A4 precursor protein-binding family A member 1 (Homo sapiens, UniProt Q00975+Q02410); type: protein assay
[12] = target: T4, Apoptotic protease-activating factor 1 (Homo sapiens, UniProt O14727); assay: activation of Apaf-1 mediated apoptosis – fluorescent, uHTS hits, dose response (AID 588554); type: functional
T4 sequence (O14727 whole entry): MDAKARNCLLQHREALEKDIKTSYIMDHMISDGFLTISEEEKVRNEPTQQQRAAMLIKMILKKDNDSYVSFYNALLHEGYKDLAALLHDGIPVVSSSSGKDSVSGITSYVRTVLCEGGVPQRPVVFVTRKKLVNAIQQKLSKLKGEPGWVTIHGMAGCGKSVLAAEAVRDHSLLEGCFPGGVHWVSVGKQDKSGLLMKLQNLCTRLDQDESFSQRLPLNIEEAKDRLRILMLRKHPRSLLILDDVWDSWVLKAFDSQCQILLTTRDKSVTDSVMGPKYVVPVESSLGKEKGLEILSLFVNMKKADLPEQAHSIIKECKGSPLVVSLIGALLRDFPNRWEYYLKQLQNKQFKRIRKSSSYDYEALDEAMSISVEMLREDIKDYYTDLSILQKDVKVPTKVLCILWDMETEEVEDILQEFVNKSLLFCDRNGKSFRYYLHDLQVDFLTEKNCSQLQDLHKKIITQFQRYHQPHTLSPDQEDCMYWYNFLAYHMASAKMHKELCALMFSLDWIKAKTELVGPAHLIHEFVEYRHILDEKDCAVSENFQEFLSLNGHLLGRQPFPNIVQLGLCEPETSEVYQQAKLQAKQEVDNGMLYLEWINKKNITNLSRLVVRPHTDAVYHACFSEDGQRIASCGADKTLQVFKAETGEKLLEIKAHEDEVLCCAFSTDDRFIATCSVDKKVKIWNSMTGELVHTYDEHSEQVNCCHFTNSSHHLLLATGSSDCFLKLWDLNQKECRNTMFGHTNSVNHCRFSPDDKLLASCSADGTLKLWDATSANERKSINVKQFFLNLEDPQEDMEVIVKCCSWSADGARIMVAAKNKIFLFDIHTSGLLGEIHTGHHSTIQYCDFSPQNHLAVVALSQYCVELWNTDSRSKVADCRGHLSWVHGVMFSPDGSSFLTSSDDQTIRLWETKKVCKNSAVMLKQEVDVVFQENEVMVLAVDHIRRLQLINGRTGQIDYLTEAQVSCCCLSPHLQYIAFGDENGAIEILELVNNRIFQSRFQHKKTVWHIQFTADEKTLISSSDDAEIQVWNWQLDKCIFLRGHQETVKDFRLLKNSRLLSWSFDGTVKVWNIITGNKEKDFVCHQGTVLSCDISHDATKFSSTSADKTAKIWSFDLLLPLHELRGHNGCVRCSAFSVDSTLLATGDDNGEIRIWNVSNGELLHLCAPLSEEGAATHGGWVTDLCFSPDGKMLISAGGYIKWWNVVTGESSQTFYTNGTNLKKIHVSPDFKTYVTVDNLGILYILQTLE

[13] = target: T5, Type-1 angiotensin II receptor (Homo sapiens, UniProt P30556); assay: AT1 receptor antagonists, dose response, selectivity assay for APJ receptor antagonist project, cell-based, uHTS hits (AID 463214); type: functional;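 note: antagonist potency against angiotensin II stimulated AT1 response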
T5 sequence (P30556 whole entry): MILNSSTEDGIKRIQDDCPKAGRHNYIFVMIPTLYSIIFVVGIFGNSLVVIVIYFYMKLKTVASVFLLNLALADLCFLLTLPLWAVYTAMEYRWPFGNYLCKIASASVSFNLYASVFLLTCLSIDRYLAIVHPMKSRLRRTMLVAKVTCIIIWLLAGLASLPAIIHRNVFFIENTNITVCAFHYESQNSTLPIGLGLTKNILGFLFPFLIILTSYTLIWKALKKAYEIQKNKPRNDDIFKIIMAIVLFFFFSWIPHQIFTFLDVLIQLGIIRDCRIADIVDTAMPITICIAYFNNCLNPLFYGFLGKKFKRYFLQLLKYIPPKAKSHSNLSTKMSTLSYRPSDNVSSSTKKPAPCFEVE

[14] = target: Polyadenylate-binding protein 1 (Homo sapiens, UniProt P11940); assay: PABP poly(A) RNA binding inhibitors, primary screen, biochemical, fluorescence polarization, uHTS (AID 2014)
[15] = target: T3, Voltage-gated N-type calcium channel alpha-1B subunit/Amyloid beta A4 precursor protein-binding family A member 1; type: protein assay; remark: listed apart in the source
[16] = target: T6, Dual specificity protein phosphatase 3 (Homo sapiens, UniProt P51452); assay: VHR1 phosphatase inhibitors, biochemical (AID 1878)
[17] = target: T6, Dual specificity protein phosphatase 3; assay: VHR1 phosphatase inhibitors, primary screen, biochemical, absorbance, uHTS (AID 1654)
[18] = target: Beta-2 adrenergic receptor (Homo sapiens, UniProt P07550); assay: beta2AR agonists driving receptor internalization, dose response, cell-based, FAP fluorogen, flow cytometry, cherry pick 1 (AID 588763); type: functional
NIH3T3 = assay: cytotoxicity in NIH-3T3 fibroblasts, dose response, cytotoxicity control for antifungal drug resistance project, cell-based, Alamar Blue, fluconazole, dry powder (AID 488809); type: functional; conditions: Mus musculus
HEK293 [19] = assay: cytotoxicity in HEK293T NF-kB-Luc cells, SAR follow-up, cytotoxicity control for NF-kB activator project, cell-based, resazurin fluorescence (AID 493251); type: functional; conditions: Homo sapiens
Jurkat = assay: SAR Analysis of small molecule inhibitors of […] specific antigen receptor-induced NF-kB activation in a Jurkat cell line using a luminescence assay - Set 3. [Related pubchem assays (depositor defined):AID435022, AID435025, AID465]; type: functional, cell-based; conditions: Homo sapiens
HEK293 [20] = assay: SAR Analysis of small molecule inhibitors of B-cell specific antigen receptor-induced NF-kB activation in a HEK-293T cell line using a luminescence assay - Set 2. [Related pubchem assays (depositor defined):AID435022, AID435025, AID489021]; type: functional, cell-based; conditions: Homo sapiens

T6 sequence (P51452 whole entry): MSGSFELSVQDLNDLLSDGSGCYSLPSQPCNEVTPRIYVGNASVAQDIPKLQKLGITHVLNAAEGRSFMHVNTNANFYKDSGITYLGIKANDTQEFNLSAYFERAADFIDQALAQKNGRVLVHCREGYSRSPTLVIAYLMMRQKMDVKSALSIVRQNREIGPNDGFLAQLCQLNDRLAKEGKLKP
T3 sequence (Q00975 whole entry): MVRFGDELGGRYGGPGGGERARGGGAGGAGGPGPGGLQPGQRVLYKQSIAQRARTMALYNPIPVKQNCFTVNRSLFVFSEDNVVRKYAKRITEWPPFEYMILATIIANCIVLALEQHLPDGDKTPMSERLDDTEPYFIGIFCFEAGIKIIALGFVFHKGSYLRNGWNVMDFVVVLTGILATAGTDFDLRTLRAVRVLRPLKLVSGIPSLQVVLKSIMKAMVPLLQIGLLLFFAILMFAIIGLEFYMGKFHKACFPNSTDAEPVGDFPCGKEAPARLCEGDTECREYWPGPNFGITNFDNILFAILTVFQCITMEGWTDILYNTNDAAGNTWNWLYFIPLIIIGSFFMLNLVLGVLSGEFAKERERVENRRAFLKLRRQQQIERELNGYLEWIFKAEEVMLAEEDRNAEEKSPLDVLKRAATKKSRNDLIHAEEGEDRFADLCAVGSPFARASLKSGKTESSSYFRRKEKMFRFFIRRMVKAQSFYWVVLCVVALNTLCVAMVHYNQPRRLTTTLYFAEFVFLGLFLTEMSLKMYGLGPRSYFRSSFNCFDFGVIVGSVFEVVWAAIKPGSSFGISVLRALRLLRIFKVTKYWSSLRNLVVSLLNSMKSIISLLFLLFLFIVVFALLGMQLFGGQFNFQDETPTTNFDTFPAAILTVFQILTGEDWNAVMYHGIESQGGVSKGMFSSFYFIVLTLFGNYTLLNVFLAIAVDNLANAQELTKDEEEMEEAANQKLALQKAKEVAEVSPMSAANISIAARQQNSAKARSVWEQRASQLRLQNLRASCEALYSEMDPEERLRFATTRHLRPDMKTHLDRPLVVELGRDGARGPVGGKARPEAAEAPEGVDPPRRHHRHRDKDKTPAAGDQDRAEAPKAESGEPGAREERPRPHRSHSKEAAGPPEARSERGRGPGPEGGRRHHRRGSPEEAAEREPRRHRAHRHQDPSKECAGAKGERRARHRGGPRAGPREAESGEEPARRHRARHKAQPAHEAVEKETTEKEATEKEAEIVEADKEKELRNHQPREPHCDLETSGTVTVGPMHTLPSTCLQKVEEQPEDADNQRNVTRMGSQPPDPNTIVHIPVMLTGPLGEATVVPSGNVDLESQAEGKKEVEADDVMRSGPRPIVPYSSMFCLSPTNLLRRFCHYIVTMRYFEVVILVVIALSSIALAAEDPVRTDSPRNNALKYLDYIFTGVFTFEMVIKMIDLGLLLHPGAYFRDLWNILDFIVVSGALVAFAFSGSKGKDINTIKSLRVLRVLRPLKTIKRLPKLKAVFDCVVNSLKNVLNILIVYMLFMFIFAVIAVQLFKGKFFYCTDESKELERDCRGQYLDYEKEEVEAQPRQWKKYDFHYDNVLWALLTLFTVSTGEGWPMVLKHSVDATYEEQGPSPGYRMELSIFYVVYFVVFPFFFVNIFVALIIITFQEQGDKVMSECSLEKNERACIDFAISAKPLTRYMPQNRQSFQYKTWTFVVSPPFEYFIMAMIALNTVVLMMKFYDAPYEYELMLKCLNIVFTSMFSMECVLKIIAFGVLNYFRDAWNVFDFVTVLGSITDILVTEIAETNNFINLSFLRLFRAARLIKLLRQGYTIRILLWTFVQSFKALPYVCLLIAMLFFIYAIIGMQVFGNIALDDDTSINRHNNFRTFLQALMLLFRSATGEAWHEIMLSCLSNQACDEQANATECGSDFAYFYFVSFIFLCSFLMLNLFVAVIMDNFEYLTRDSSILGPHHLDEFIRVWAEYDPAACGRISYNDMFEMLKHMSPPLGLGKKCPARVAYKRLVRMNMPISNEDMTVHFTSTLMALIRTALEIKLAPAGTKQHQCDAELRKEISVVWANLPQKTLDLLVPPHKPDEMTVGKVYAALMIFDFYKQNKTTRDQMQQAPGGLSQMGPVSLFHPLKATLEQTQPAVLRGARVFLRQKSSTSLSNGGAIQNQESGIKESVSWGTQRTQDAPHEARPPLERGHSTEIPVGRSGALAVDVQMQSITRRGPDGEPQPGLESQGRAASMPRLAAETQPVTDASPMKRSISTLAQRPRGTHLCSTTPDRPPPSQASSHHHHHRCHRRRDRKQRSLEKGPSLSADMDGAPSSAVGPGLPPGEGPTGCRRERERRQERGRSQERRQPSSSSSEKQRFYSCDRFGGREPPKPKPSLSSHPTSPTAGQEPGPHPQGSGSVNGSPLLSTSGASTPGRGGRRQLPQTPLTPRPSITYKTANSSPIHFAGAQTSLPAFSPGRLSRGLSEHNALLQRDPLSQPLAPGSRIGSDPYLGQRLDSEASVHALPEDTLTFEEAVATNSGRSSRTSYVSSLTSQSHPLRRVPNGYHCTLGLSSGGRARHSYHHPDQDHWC
T3 sequence (Q02410 whole entry): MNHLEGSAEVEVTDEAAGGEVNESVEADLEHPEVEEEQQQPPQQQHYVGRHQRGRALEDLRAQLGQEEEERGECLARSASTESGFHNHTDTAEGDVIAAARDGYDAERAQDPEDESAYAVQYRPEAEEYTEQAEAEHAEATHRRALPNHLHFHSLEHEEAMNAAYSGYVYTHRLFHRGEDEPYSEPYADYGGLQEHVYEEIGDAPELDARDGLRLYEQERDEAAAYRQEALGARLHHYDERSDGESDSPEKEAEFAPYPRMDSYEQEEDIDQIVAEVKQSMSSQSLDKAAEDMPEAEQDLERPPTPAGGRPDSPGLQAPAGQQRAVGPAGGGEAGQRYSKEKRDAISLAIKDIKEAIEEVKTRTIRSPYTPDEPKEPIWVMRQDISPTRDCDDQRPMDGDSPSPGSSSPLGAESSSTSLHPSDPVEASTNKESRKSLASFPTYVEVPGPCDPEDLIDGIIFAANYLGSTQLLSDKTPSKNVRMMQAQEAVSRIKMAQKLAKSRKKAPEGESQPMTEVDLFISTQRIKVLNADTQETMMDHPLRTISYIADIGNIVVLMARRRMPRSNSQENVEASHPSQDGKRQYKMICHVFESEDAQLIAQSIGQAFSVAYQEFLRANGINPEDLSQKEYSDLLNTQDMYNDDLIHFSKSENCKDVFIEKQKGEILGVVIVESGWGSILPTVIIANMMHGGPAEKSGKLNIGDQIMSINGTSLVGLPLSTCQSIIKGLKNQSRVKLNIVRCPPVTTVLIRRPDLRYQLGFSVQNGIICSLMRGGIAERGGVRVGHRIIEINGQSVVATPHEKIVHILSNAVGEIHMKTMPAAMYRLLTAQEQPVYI
Sequence of Beta-2 adrenergic receptor (P07550 whole entry): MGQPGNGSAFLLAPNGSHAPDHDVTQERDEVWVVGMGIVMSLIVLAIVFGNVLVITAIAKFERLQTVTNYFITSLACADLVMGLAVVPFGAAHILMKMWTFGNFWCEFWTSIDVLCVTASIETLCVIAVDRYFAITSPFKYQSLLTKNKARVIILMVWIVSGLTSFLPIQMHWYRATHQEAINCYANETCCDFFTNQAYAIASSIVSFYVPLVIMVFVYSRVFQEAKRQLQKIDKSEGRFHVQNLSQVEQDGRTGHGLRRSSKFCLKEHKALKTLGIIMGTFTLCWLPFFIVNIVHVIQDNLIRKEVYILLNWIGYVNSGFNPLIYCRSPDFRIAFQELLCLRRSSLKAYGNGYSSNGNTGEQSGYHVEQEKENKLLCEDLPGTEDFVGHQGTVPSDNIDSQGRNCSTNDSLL
Sequence of Beta-galactosidase (Q8VNN2 whole entry): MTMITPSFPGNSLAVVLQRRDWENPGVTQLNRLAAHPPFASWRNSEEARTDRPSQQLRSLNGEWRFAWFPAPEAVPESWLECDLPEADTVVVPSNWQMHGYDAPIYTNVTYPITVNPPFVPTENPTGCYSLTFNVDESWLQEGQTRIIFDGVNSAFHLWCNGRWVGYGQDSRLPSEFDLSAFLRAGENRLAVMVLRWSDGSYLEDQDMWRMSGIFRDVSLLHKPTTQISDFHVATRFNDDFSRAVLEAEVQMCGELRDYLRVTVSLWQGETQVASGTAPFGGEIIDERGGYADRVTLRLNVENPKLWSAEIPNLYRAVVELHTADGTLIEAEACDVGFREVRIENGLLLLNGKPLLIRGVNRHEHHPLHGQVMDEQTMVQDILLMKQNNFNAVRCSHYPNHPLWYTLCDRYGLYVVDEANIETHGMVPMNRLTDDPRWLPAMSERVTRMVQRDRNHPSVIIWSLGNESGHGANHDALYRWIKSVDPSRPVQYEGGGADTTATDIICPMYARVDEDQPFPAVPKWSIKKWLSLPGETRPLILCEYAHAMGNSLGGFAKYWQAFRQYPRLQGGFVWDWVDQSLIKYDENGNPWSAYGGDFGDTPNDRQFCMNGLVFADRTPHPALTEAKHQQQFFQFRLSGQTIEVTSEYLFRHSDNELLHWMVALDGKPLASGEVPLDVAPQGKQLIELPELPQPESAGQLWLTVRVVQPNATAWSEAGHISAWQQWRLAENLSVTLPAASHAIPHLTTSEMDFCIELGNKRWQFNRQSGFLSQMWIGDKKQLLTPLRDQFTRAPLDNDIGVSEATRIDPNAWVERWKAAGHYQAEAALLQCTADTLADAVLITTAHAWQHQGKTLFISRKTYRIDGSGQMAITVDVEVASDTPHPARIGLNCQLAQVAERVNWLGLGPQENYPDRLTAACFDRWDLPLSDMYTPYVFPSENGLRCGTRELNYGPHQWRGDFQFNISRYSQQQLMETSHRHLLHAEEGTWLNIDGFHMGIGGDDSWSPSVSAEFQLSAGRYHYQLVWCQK

Compound: Cc1ccc(C(=O)N2CCN(c3ccnc4cc(Cl)ccc34)CC2)cc1
- AC50 (Candida albicans [1]): 31.8 µM (active)
- AC50 (Candida albicans [2]): 7.07 µM (active)
- AC50 (Candida albicans [3]): 1.33 µM (active)
- AC50 (Candida albicans [4]): 1.78 µM (active)

Compound: CCOP1(=O)OCC2OC(n3cnc4c(N)ncnc43)C(O)C2O1 (stereo unspecified)
- EC50 [5]: 2.68 µM (active)
- EC50 [6]: 3.75 µM (active)

Compound: Cc1ccc(S(=O)(=O)N2CCOCC2)cc1NC(=O)CSc1nnc2cc(C)c3ccccc3n12
- IC50 (Hexokinase HKDC1): 43.2 µM (inactive)
- EC50 [7]: 17.4 µM (inactive)
- IC50 (Hexokinase-1): 50.3 µM (inactive)

Compound: COc1cc(/C=C2\SC(=O)N(c3cccc(Cl)c3)C2=O)cc([N+](=O)[O-])c1O
- IC50 [8]: 21.9 µM (active)
- IC50 [9]: > 158 µM (not active)
- EC50 (Beta-galactosidase): 30.8 µM (active)
- IC50 [10]: 4.99 µM (active)
- IC50 [11]: 3.5 µM (active)
- EC50 [12]: 5.8 µM (active)
- IC50 [13]: 27.3 µM (not active)
- IC50 [14]: > 100 µM (inactive)
- IC50 [15]: > 50 µM (inactive)
- IC50 [16]: 2.21 µM (active)
- IC50 [17]: 3.03 µM (active)

Compound: CCCCN(C(=O)c1ccc(NC(=O)C(C)C)cc1)c1ccccc1
- EC50 [18]: 0.049 µM (active)

Compound: CCCNC(=O)Cn1nc(-c2ccccc2)c2cc(Cl)ccc21
- AC50 (Candida albicans [1]): 83.4 µM (active)
- AC50 (NIH3T3): 28.9 µM (active)

Compound: COc1ccccc1NC(=O)CCc1nc(-c2ccc(C(C)(C)C)cc2)no1
- IC50 (HEK293 [19]): 56 µM (inactive)
- IC50 (Jurkat): 0.665 µM (active)
- IC50 (HEK293 [20]): 0.44 µM (active)

— ChEMBL document CHEMBL1201862, “PubChem BioAssay data set” (2004)
